Here are results for four molecules from US5602259A, “Method for producing 4-hydroxy-5-methyl-3[2H]-furanone and uses of same” (priority 1993, dated 1997).

The nature of series [1]: Anti-oxidation activity (1): inhibition of autonomous oxidation of linolenic acid, absorbance at 500 nm. Format: biochemical. The note with it: for concentration showing 90% inhibition of autonomous oxidation of linolenic acid: pH 7.4, 37° C., 24 hours, for the extract: concentration of 4-hydroxy-5-methyl-3[2H]-furanone. The protocol: (§1) An anti-oxidation activity of 4-hydroxy-5-methyl-3[2H]-furanone was examined as follows:
To 1.0 ml of 0.2M potassium phosphate buffer(pH 7.4) containing 2 mg/ml of linolenic acid and 10 mg/ml of Tween-20 was added the extract obtained from Lichrosorb RP-18 column in Example 1, which contains a serial concentrations of 10~2000 ppm of 4-hydroxy-5-methyl-3[2H]-furanone. […] The resulting mixture was allowed at 37° C. for 24 hours. 0.1 ml of the reaction mixture was taken and diluted with 9.7 ml of ethanol. 0.1 ml of 30% ammonium thiocyanide and 0.1 ml of a mixture of 5% ferrous ammonium sulfate and 3.5% […] were added, and 3 minutes later, an absorbance at 500 nm was measured to evaluate an automatic oxidation of fatty acid.

A short description of another series: in vitro. Format: cell-based. The note with it: fibroblast cells. An excerpt: (§2) 4-hydroxy-5-methyl-3[2H]-furanone obtained by the method of the invention has an excellent activity to inhibit melanin formation.
Series [2] is described as follows: Anti-oxidation activity (2): prevention of oxidation of unsaturated fatty acid over time (FIG. 5). The class given is biochemical. The conditions noted are these: 200 ppm, 37° C., pH 7.4. Here is the method: as §1
1.0 ml of 0.2M potassium phosphate buffer(pH 7.4) containing 2mg/ml of linolenic acid, 10 mg/ml of Tween-20 and 200 ppm of L-ascorbic acid, tocopherol or 4-hydroxy-5-methyl-3[2H]-furanone was allowed to stand at 37° C. for 24 hours. For a control, 1.0 ml of 0.2M potassium phosphate buffer(pH 7.4) containing 2 mg/ml of linolenic acid and 10 mg/ml of Tween-20 was employed.
The same procedure as that of Experimental Example 2 was carried out to evaluate the anti-oxidation activity of test compounds.
In FIG. 5, the longitudinal axis indicates an amount of fatty peroxide represented by an absorbance at 500 nm and the horizontal axis indicates the time in days.

Another series has as its target T1, tyrosinase (Agaricus bisporus, UniProt C7FF04).
T1 construct: purchased SIGMA
In words: Tyrosinase-inhibiting action. The class given is biochemical. The conditions noted are these: pH 6.8, 37° C., 10 minutes, tyrosine substrate. Here is the method:
As an enzyme, tyrosinase purchased from SIGMA was used. […] Water were used to dilute the test compounds. As a control, 0.9 ml of 1:1 mixture of ethanol and water was used. […] The test tube was quickly cooled in an ice water bath to stop the reaction, and the absorbance was measured at 475 nm. The tyrosinase-inhibitory activities of the test compounds were calculated by using the following equation: [formula] From the inhibitions(%) of a series of dilutions of test compounds, IC50, i.e., the concentration of test compound which inhibit tyrosinase by 50% was calculated for each test compound.

The next series relates to murine melanoma cells. In words: Inhibitive effect on melanin formation in melanoma cells. The class given is cell-based. The conditions noted are these: Mus musculus, 48 h, 37° C., by observing the color of the cells, read-out: concentration with inhibitive effect on melanin formation within melanoma cells. Here is the method: as §2
To a T-shaped flask containing […] of Eagle's medium containing 10% fetal calf essential medium was added murine melanoma cells in an amount of 5×10^4 cells/30 ml. […] After the cultivation, the cells were collected and examined for melanin formation of the cells by observing the color of the cells.

Some results are limits rather than exact numbers.

T1 sequence (C7FF04 2-392 limits assumed): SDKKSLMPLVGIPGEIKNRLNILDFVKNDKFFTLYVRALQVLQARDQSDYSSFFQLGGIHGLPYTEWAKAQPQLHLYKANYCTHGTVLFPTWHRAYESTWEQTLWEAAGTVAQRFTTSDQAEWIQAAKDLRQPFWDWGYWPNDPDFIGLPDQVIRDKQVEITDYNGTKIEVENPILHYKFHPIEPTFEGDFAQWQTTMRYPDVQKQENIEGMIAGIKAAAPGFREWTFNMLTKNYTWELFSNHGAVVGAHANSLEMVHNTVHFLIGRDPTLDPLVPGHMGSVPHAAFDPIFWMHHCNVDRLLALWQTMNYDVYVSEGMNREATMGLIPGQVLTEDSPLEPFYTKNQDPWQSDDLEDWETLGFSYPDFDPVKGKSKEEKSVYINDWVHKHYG

Consider `Cc1occc(=O)c1O` [maltol], for which, in series [1], the “concentration showing 90% inhibition of autonomous oxidation of linolenic acid” value worked out at 460 ppm.

In the case of `O=c1cc(CO)occ1O` [kojic acid], the “concentration showing 90% inhibition of autonomous oxidation of linolenic acid” value in series [1] worked out at 600 ppm. The same molecule displayed an MCC at 48 h in the series “in vitro” of over 500 µg/mL.

The molecule `O=C1O[C@H]([C@@H](O)CO)C(O)=C1O` [ascorbic acid, L-ascorbic acid] had an MCC at 48 h in “in vitro” of 50 µg/mL.

As usually defined, the IC50 is the concentration that inhibits the measured activity by half. Read a high IC50 as a need for much substance. Consider `CC1=C(O)C(=O)CO1` [4-hydroxy-5-methyl-3[2H]-furanone], for which the “prevention of oxidation of unsaturated fatty acid (in words)” value in series [2] was “can prevent more efficiently the oxidation of unsaturated fatty acid than the same amount of L-ascorbic acid or α-tocopherol”. In addition, the “anti-oxidation activity (in words)” value in series [1] (compared with maltol, kojic acid or L-ascorbic acid) is “superior over maltol, kojic acid or L-ascorbic acid”. The IC50 on tyrosinase is 52.6 µM. The same molecule registered an MCC at 48 h in “in vitro” of over 500 µg/mL. For the same molecule, the minimal effective concentration with murine melanoma cells lay within 10 to 20 µg/mL.
